The record followed here is US9364458B2, “Stabilized pharmaceutical dosage forms comprising atrasentan” (AbbVie Inc., priority 2013, dated 2016).

Counter-ions that a name gives are not always drawn.

Data set [1] in a line: Dispersive surface energy by inverse gas chromatography. It is filed as physicochemical. On the procedure:
Wet granulation blends prepared as described in Method 2 (atrasentan added dry to granulation bowl) and Method 3 (atrasentan added as HPMC suspension to granulation bowl) of Example 6 were analyzed prior to compression using inverse gas chromatography (“IGC”) to determine the surface energy of the blends. These measurements were compared to the measured values for pure atrasentan and pure HPMC.

Data set [2] is described as follows: Impurities / degradation products by HPLC in stability testing. It is filed as physicochemical. The settings on record: mixtures with atrasentan and crospovidone, 80° C.
Data set [3] has as its system subjects with diabetic nephropathy. Briefly: Phase IIb clinical trials of atrasentan. It is filed as in vivo, human. The text has this: The low dosing and the narrow therapeutic window for atrasentan have been confirmed through analysis of the data collected from recent Phase IIb clinical trials in subjects with diabetic nephropathy. These Phase IIb clinical trials evaluated the safety and efficacy of atrasentan to identify an appropriate balance between the systemic effects of atrasentan (which can lead to adverse side effects such as edema) and the efficacy effects of atrasentan. […] Reduction of residual albuminuria and the urinary-albumin-to-creatine ratio are surrogate endpoints generally associated with delaying the progression of end-stage renal disease and associated cardiovascular complications.

[4] abbreviates: about 0.25 mg to about 1.25 mg daily.
[5] abbreviates: daily dose greater than about 1.25 mg.

Consider `CCCCN(CCCC)C(=O)CN1C[C@H](c2ccc3c(c2)OCO3)[C@@H](C(=O)O)[C@@H]1c1ccc(OC)cc1` [Atrasentan Monohydrochloride], for which the “DISPERSIVE SURFACE ENERGY” value came out at 50.9 mJ · m^−2 in data set [1] (Average), 50.6 mJ · m^−2 in data set [1] (Run 1) and 51.4 mJ · m^−2 in data set [1] (Run 2).
As to `Cl.N[C@@H](CS)C(=O)O.O` [L-cysteine hydrochloride monohydrate], the “stabilizing effect among the three anti-oxidants” value in data set [2] is given as “greatest stabilizing effect”.
For `CCCCN(CCCC)C(=O)CN1C[C@H](c2ccc3c(c2)OCO3)[C@@H](C(=O)O)[C@@H]1c1ccc(OC)cc1` [atrasentan, (2R,3R,4S)-4-(1,3-benzodioxol-5-yl)-1-[2-(dibutylamino)-2-oxoethyl]-2-(4-methoxyphenyl)pyrrolidine-3-carboxylic acid], in data set [3] (setting [4]), the residual albuminuria entry is “significantly reduce” and the urinary-albumin-to-creatine ratio entry was “significantly reduce”. In data set [3] (setting [5]), the “adverse effects, particularly peripheral edema” value is “increase in adverse effects” and the “efficacy relative to the 1.25 mg daily dose” value is given as “without any further improvement in efficacy”. In addition, the “efficacy of daily dose” value in data set [3] (daily dose less than about 0.25 mg) is listed as “sub-therapeutic”.
